Results: paper PMC6934184, “Selective DNA-PKcs inhibition extends the therapeutic index of localized radiotherapy and chemotherapy” (The Journal of Clinical Investigation, 2019)

Target: T1, TLK1 (Homo sapiens, UniProt Q9UKI8)
T1 construct: purchased Thermo Fisher Scientific (Life Technologies) SelectScreen
Assay: SelectScreen LanthaScreen
Assay type: binding
Conditions: read-out: % displacement
In short: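 SelectScreen broad panel; activity (Z'LYTE, Adapta) plus binding formats. ATP: Km app for CSF1R Z'LYTE; 10 for CAMK1 Adapta. Readout = % per kinase.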

T1 sequence (Q9UKI8 whole entry): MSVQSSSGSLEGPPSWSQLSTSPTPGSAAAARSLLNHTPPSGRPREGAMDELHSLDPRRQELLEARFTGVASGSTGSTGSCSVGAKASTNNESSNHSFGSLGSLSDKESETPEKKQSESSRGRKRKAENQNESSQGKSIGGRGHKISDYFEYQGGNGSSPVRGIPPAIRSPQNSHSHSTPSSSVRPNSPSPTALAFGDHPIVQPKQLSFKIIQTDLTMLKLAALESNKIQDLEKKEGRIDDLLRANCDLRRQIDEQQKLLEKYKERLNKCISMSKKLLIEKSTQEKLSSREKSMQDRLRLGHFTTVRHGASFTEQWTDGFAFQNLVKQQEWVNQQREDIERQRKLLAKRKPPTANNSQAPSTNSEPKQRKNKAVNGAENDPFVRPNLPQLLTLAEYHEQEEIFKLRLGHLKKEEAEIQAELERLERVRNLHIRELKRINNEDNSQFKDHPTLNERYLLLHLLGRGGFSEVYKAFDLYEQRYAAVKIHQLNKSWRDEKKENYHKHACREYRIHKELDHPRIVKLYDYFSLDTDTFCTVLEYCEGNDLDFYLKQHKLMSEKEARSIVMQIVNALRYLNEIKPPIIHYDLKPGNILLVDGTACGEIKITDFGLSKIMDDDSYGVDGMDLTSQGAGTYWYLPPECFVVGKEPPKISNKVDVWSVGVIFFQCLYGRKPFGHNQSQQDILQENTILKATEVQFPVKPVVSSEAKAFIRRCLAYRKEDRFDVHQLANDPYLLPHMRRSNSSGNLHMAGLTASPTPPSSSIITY

**Q.** How did the inhibition at 1 µM turn out when `CN(C(=O)CN1CCOCC1)c1ccc2sc3c(-c4cccc5c(=O)cc(N6CC7CCC(C6)O7)oc45)cccc3c2c1` [NU5455] was run?
**A.** -0.8%
